US20230158034A1, “CO-TREATMENT WITH CDK4/6 AND CDK2 INHIBITORS TO SUPPRESS TUMOR ADAPTATION TO CDK2 INHIBITORS” (Pfizer Inc., priority 2020, published 2023)

Assays:
[1] = tested on: CDK2 activity (DHB sensor phosphorylation); test: DHB-based CDK2 activity sensor, single-cell time-lapse imaging (C/N ratio); parameters: species or system human
From the text: (§1) The DHB sensor is localized to the nucleus when it is not phosphorylated. Upon phosphorylation, the nuclear localization signal is masked, the nuclear export signal is unmasked, and the sensor steadily translocates to the cytoplasm in response to increasing CDK2 activity (FIG. 1A). Thus, kinase activity can be quantified by the ratio of the cytoplasmic to nuclear fluorescence intensity (C/N ratio) of the DHB sensor. […] Asynchronously cycling cells were first imaged for approximately 20 hr in the absence of drug to establish the cell-cycle phase of each cell; the movie was then paused to add drug, and then imaging was continued for another 1-2 days. Because the cells were cycling asynchronously, all cell-cycle phases with one drug treatment were sampled. This allowed the present inventors to computationally isolate traces for cells that received drug at any time since the completion of anaphase.
(§2) Cells were seeded at least 24 hr prior to imaging in phenol-red-free full-growth medium in glass-bottom 96-well plates (CellVis P96-1.5H-N) that were coated with collagen prior to seeding. The seeding density was chosen such that the cells would remain sub-confluent until the end of the imaging period. Cells were first imaged for 16-20 hr in full-growth media without drug. The movie was then briefly paused and the full-growth media was replaced with full-growth media containing drug at the desired concentration. The plate was then re-inserted into the microscope and aligned to its prior position and imaging was continued for an additional 24-48 hr. Images were acquired every 12 min (for MCF10A or RPE-hTERT) or every 20 min (for MCF7 or OVCAR3) on a Nikon Eclipse Ti or Ti2 microscope with a 10×0.45 NA objective in a humidified, 37° C. chamber at 5% CO2. Exposure times for all movies for all channels were kept under 500 ms per timepoint to minimize phototoxicity. Cell tracking was performed using published MATLAB scripts (Cappell et al., 2016), as described previously (Arora et al., 2017). The tracking code is available for download at https://github.com/scappell/Cell_tracking. Cell counts over time were obtained by counting the number of segmented nuclei in each frame of the movie.
Asynchronously cycling cells that divided and received drug treatments during the imaging period were initially segmented into categories based on the cells' time of anaphase relative to the time of drug addition. These cells were then additionally subcategorized based on their DHB cytoplasmic/nuclear (C/N) ratio after the mitotic event. C/N ratio was calculated by quantifying the ratio of cytoplasmic to nuclear mean DHB fluorescence, with the cytoplasmic component calculated as the mean of the top 50th percentile of a ring of pixels outside of the nuclear mask.
Cells were classified as CDK2^inc if the DHB C/N ratio was above 0.5 units 3 hr after anaphase, otherwise they were classified as CDK2^low. Figure legends indicate whether only CDK2^inc cells or whether all cells are plotted. The median of the single-cell traces in a subcategory was then used to create median trace with 95% confidence interval representative of the particular subcategory. All cell trace analysis was done using custom MATLAB scripts and code is available upon request.

[2] = tested on: Rb, Nucleolin, Cdc6 and Nbs1 phosphorylation; test: Immunofluorescence and western blotting of endogenous CDK2 substrates; type: cell-based, human; conditions: 10 μM 3 MB-PP1 for 1 hr, RPE-hTERT CDK2^F80G/F80G cells
Experimental: Cells were fixed for 15 minutes with freshly prepared 4% paraformaldehyde, washed twice with PBS, and incubated with a blocking buffer (3% BSA in PBS) for 1 hr at room temperature. Permeabilization was carried out using 0.2% Triton-X 100 for 15 min at 4° C. Primary antibody was diluted in blocking buffer and incubated with cells overnight at 4° C. followed by three washes with 1×PBS. Secondary antibodies conjugated to Alexa Fluor 488, Alexa Fluor 546 or Alexa Fluor 647 were incubated for 1 hr followed by three washes with 1×PBS. DNA was stained using Hoechst 33342 dye for 10 minutes at 1:10000 (ThermoFisher H3570). Images were acquired on a Nikon Eclipse Ti or Ti2 microscope with a 10×0.45 NA objective. DNA content was determined by taking the integrated intensity of each cell's Hoechst signal. Cells were delineated as 3-4N DNA content by plotting a histogram of DNA content and drawing a threshold and the end of the 2N peak.
Lysates were prepared using 1×LDS sample buffer (ThermoFisher NP007) using equal numbers of cells. Proteins were separated using NuPAGE precast polyacrylamide gels (ThermoFisher NP0301). Total protein was quantified using Azure Red Dye (Azure Biosystems AC2124) and was used to normalize the signal from antibodies of interest. Primary antibodies used are specified under the “Antibodies” section. HRP-conjugated or IR700 and IR800 labeled fluorescent secondary antibodies were used for visualization (Cell Signaling Technology 7074 and 7076).

[3] = tested on: MCF10A, RPE-hTERT, MCF7 and OVCAR3 cells; test: Cell-cycle progression, mitosis and proliferation by time-lapse imaging; type: cell-based, human; conditions: 1 μM palbociclib (after the upcoming mitosis) or 9 μM RO3306 (toward end of cell cycle), MCF10A
From the text: as §1, §2

| SMILES | DHB sensor phosphorylation ([1]; 10 μM 3 MB-PP1, RPE-hTERT CDK2^F80G/F80G cells) | DHB sensor phosphorylation ([1]; 10 μM 3 MB-PP1, wild-type RPE-hTERT cells) | Nbs1 phosphorylation [2] | DHB phosphorylation in RPE-hTERT CDK2^F80G/F80G cells as compared to wild-type RPE-hTERT cells ([1]; 9 μM RO3306) | effect on DHB sensor phosphorylation ([1]; 9 μM RO3306, MCF10A) | cell-cycle arrest [3] |
| --- | --- | --- | --- | --- | --- | --- |
| Cc1cccc(Cc2nn(C(C)(C)C)c3ncnc(N)c23)c1 [3 MB-PP1, 1-(tert-butyl)-3-(3-methylbenzyl)-1H-pyrazolo[3,4-d]pyrimidin-4-amine] | reduction in DHB sensor phosphorylation that quickly rebounded | not affected | loss of Nbs1 phosphorylation |  |  |  |
| O=C1NC(=NCc2cccs2)S/C1=C\c1ccc2ncccc2c1 [RO3306] |  |  |  | much greater drop in DHB phosphorylation | minimal immediate effect | G2 arrest |
